In patent US20100292214A1, “Compounds with Antiparasitic Activity, Applications thereof to the Treatment of Infectious Diseases Caused by Apicomplexans” (commissariat a l'Energie Atomique, priority 2007, published 2010):
Where a name gives a salt, the structure may show the parent alone. Read-outs that look alike come from different tables or passages of the source.

What was measured:
[1] = tested on: asynchronous 3D7 chloroquine-sensitive P. falciparum infected red blood cells; assay: Labeled hypoxanthine incorporation assay (in vitro anti-malarial activity); assay type: cell-based; conditions: Plasmodium falciparum, 3D7, Erythrocyte, read-out: IC50 assessed on Plasmodium Falciparum
[2] = tested on: Toxoplasma gondii RH-β1 strain; assay: microbe, parasite or virus in culture; assay type: cell-based; conditions: Toxoplasma gondii, read-out: IC50 assessed on Toxoplama Gondii
[3] = 3D7 chloroquine-sensitive strain, infected RBC, 48 h contact, [3H]-hypoxanthine incorporation, two independent experiments in duplicates

Structure (SMILES)	IC50 [1, 3]	IC50 [2]	IC50 [1]
CC(C)(C)OC(=O)NCCn1c(=O)n(C2CCN(C(=O)OC[C@H](Cc3ccccc3)N(Cc3ccccc3)Cc3ccccc3)CC2)c2ccccc21 [Compound 74, (S)-2-(dibenzylamino)-3-phenylpropyl 4-(3-(2-tert-butyloxycarbonylaminoethyl)-2-oxo-2,3-dihydro-1H-benzo[d]imidazol-1-yl)piperidine-1-carboxylate]	0.384 µM	3.2 µM	–
Cc1ccccc1S(=O)(=O)N(c1ccccc1)C1CCN(C(=O)OC[C@H](C)N(Cc2ccccc2)Cc2ccccc2)CC1 [Compound 167, (S)-2-(dibenzylamino)propyl 4-(N-phenyl-2-methylphenylsulfonamido)piperidine-1-carboxylate]	0.338 µM	3.9 µM	–
C[C@@H](COC(=O)N1CCC(n2c(=O)n(Cc3ccccc3)c3ccccc32)CC1)N(Cc1ccccc1)Cc1ccccc1 [Compound 71, (S)-2-(dibenzylamino)propyl 4-(1-benzyl-1,2-dihydro-2-oxobenzo[d]imidazol-3-yl)piperidine-1-carboxylate]	0.77 µM	1.76 µM	–
C[C@@H](COC(=O)N1CCC(n2c(=O)n(S(C)(=O)=O)c3ccccc32)CC1)N(Cc1ccccc1)Cc1ccccc1 [Compound 62, (S)-2-(dibenzylamino)propyl 4-(2-oxo-3-methylsulfonyl-2,3-dihydro-1H-benzo[d]imidazol-1-yl)piperidine-1-carboxylate]	1.6 µM	1.98 µM	–
C[C@@H](COC(=O)N1CCC(n2c(=S)[nH]c3ccccc32)CC1)N(Cc1ccccc1)Cc1ccccc1 [Compound 97, (S)-2-(dibenzylamino)propyl 4-(1,2-dihydro-2-thioxobenzo[d]imidazol-3-yl)piperidine-1-carboxylate]	1.06 µM	3.5 µM	–
C[C@@H](COC(=O)N1CCC(N(c2ccccc2)S(=O)(=O)c2ccc(F)cc2)CC1)N(Cc1ccccc1)Cc1ccccc1 [Compound 155, (S)-2-(dibenzylamino)propyl 4-(N-phenyl-4-fluorophenylsulfonamido)piperidine-1-carboxylate]	0.617 µM	0.8 µM	–
COc1cccc(CN(CCOC(=O)N2CCC(n3c(=O)[nH]c4ccccc43)CC2)Cc2ccccc2)c1 [Compound 122, 2-(benzyl(3-methoxybenzyl)amino)ethyl 4-(2-oxo-2,3-dihydro-1H-benzo[d]imidazol-1-yl)piperidine-1-carboxylate hydrochloride]	3.72 µM	1.75 µM	–
C[C@@H](COC(=O)N1CCC(n2c(-c3ccccc3)nc3ccccc32)CC1)N(Cc1ccccc1)Cc1ccccc1 [Compound 153, (S)-2-(dibenzylamino)propyl 4-(2-phenyl-1H-benzo[d]imidazol-1-yl)piperidine-1-carboxylate]	2.33 µM	3.75 µM	–
C[C@@H](CN1CCC(n2c(=O)[nH]c3ccccc32)CC1)N(Cc1ccccc1)Cc1ccccc1 [Compound 50, 1-(1-((S)-2-(dibenzylamino)propyl)piperidin-4-yl)-1H-benzo[d]imidazol-2(3H)-one]	3.34 µM	7 µM	–
C[C@@H](COC(=O)N1CCC(N2CCCc3ccccc32)CC1)N(Cc1ccccc1)Cc1ccccc1 [Compound 8, (S)-2-(dibenzylamino)propyl 4-(3,4-dihydroquinolin-1(2H)-yl)piperidine-1-carboxylate]	2.81 µM	25 µM	–
C[C@@H](COC(=O)N1CC=C(n2c(=O)[nH]c3ccccc32)CC1)N(Cc1ccccc1)Cc1ccccc1 [Compound 28, (S)-2-(dibenzylamino)propyl 5,6-dihydro-4-(1,2-dihydro-2-oxobenzo[d]imidazol-3-yl)pyridine-1(2H)-carboxylate]	4.1 µM	3.5 µM	–
COc1cc(NC2CCN(C(=O)OC[C@H](C)N(Cc3ccccc3)Cc3ccccc3)CC2)cc(OC)c1OC [Compound 83, (S)-2-(dibenzylamino)propyl 4-(3,4,5-trimethoxyphenylamino)piperidine-1-carboxylate]	3.09 µM	16 µM	–
O=c1[nH]c2ccccc2n1C1CCN(CCCCN(Cc2ccccc2)Cc2ccccc2)CC1 [Compound 9, 1-(1-(4-(dibenzylamino)butyl)piperidin-4-yl)-1H-benzo[d]imidazol-2(3H)-one]	2.95 µM	1.5 µM	–
C[C@@H](COC(=O)N1CCC(Cn2c(=O)[nH]c3ccccc32)CC1)N(Cc1ccccc1)Cc1ccccc1 [Compound 19, (S)-2-(dibenzylamino)propyl 4-((1,2-dihydro-2-oxobenzo[d]imidazol-3-yl)methyl)piperidine-1-carboxylate]	5.79 µM	3.41 µM	–
O=C(OC[C@@H]1CCCN1Cc1ccccc1)N1CCC(n2c(=O)[nH]c3ccccc32)CC1 [Compound 42, ((S)-1-benzylpyrrolidin-2-yl)methyl 4-(1,2-dihydro-2-oxobenzo[d]imidazol-3-yl)piperidine-1-carboxylate]	18.8 µM	5 µM	–
O=C(OCCN(Cc1ccccc1)Cc1ccc(Br)cc1)N1CCC(n2c(=O)[nH]c3ccccc32)CC1 [Compound 115, 2-(benzyl(4-bromobenzyl)amino)ethyl 4-(2-oxo-2,3-dihydro-1H-benzo[d]imidazol-1-yl)piperidine-1-carboxylate hydrochloride]	4.41 µM	3.2 µM	–
C[C@@H](COC(=O)N1CCCC(n2c(=O)[nH]c3ccccc32)CC1)N(Cc1ccccc1)Cc1ccccc1 (stereo partly drawn) [Compound 13, (S)-2-(dibenzylamino)propyl 4-(1,2-dihydro-2-oxobenzo[d]imidazol-3-yl)azepane-1-carboxylate]	10.7 µM	5 µM	–
COc1cccc(CN(Cc2ccccc2)[C@@H](C)COC(=O)N2CCC(n3c(=O)[nH]c4ccccc43)CC2)c1 [Compound 126, (S)-2-(benzyl(3-methoxybenzyl)amino)propyl 4-(2-oxo-2,3-dihydro-1H-benzo[d]imidazol-1-yl)piperidine-1-carboxylate hydrochloride]	3.98 µM	3.75 µM	–
C[C@@H](COC(=O)NCCCn1c(=O)[nH]c2ccccc21)N(Cc1ccccc1)Cc1ccccc1 [Compound 6, (S)-2-(dibenzylamino)propyl 3-(1,2-dihydro-2-oxobenzo[d]imidazol-3-yl)propylcarbamate]	16.6 µM	0.381 µM	–
C[C@@H](COC(=O)N1CCC(Nc2ccccc2)CC1)N(Cc1ccccc1)Cc1ccccc1 [Compound 80, (S)-2-(dibenzylamino)propyl 4-(phenylamino)piperidine-1-carboxylate]	–	9.5 µM	3.41 µM
O=C(OCCN(Cc1ccccc1)Cc1ccc([N+](=O)[O-])cc1)N1CCC(n2c(=O)[nH]c3ccccc32)CC1 [Compound 98, 2-(N-(4-nitrobenzyl)-N-benzylamino)ethyl 4-(1,2-dihydro-2-oxobenzo[d]imidazol-3-yl)piperidine-1-carboxylate]	3.04 µM	3.33 µM	–
C[C@@H](CNC(=O)N1CCC(n2c(=O)[nH]c3ccccc32)CC1)N(Cc1ccccc1)Cc1ccccc1 [Compound 92, N—((S)-2-(dibenzylamino)propyl)-4-(1,2-dihydro-2-oxobenzo[d]imidazol-3-yl)piperidine-1-carboxamide]	3.47 µM	15 µM	–
C[C@@H](COC(=O)N1CCC(n2c(=O)[nH]c3ccccc32)CC1)N(CCCc1ccccc1)Cc1ccccc1 [Compound 125, (S)-2-(benzyl(3-phenylpropyl)amino)propyl 4-(2-oxo-2,3-dihydro-1H-benzo[d]imidazol-1-yl)piperidine-1-carboxylate hydrochloride]	4.2 µM	4 µM	–
C[C@@H](COC(=O)N1CCC(n2c(=O)oc3ccccc32)CC1)N(Cc1ccccc1)Cc1ccccc1 [Compound 2, (S)-2-(dibenzylamino)propyl 4-(2-oxobenzo[d]oxazol-3(2H)-yl)piperidine-1-carboxylate]	14.8 µM	0.8 µM	–
Oc1cc(Cl)ccc1Oc1ccc(Cl)cc1Cl [Triclosan, reference compound]	–	0.32 µM	1.55 µM
C[C@@H](COC(=O)N1CCC(n2c(=O)n(S(=O)(=O)c3ccc(C(F)(F)F)cc3)c3ccccc32)CC1)N(Cc1ccccc1)Cc1ccccc1 [Compound 58, (S)-2-(dibenzylamino)propyl 4-(2-oxo-3-(4-(trifluoromethyl)phenylsulfonyl)-2,3-dihydro-1H-benzo[d]imidazol-1-yl)piperidine-1-carboxylate]	0.42 µM	8.5 µM	–
C[C@@H](COC(=O)N1CCC(n2c(=O)[nH]c3ccccc32)CC1)N(Cc1ccccc1)Cc1ccnc2ccccc12 [Compound 133, (S)-2-(benzyl(quinolin-4-ylmethyl)amino)propyl 4-(2-oxo-2,3-dihydro-1H-benzo[d]imidazol-1-yl)piperidine-1-carboxylate hydrochloride]	2.55 µM	1 µM	–
C[C@@H](COC(=O)N1CCC(n2c(=O)n(C(=O)c3ccccc3)c3ccccc32)CC1)N(Cc1ccccc1)Cc1ccccc1 [Compound 64, (S)-2-(dibenzylamino)propyl 4-(1,2-dihydro-2-oxo-1-(benzoyl)benzo[d]imidazol-3-yl)piperidine-1-carboxylate]	2.88 µM	0.96 µM	–
CC(C)C[C@@H](COC(=O)N1CCC(n2c(=O)[nH]c3ccccc32)CC1)N(Cc1ccccc1)C(=O)OC(C)(C)C [Compound 105, (S)-2-(benzyl(tert-butoxycarbonyl)amino)-4-methylpentyl 4-(2-oxo-2,3-dihydro-1H-benzo[d]imidazol-1-yl)piperidine-1-carboxylate]	1.42 µM	2.2 µM	–
O=C(OC[C@H](Cc1ccccc1)N(Cc1ccccc1)Cc1ccccc1)N1CCC(n2c(=O)n(S(=O)(=O)c3ccccc3)c3ccccc32)CC1 [Compound 53, (S)-2-(dibenzylamino)-3-phenylpropyl 4-(1,2-dihydro-3-phenylsulfonyl-2-oxobenzo[d]imidazol-1-yl)piperidine-1-carboxylate]	1.94 µM	22 µM	–
